Test results from US7799748B2, “Method of selecting benefit agents/oils suitable for reducing surfactant damage” (Conopco, Inc., priority 2005, dated 2010).

Legend:
[1] = target: BSA (Bovine Serum Albumin) (Bos taurus, UniProt P02769); test: Conductivity test: surfactant binding to BSA protein; conditions: 10% SDS with 10% oil (1:1) or 10% SDS alone; 0.5% BSA in 0.02M acetate buffer pH~5.2, room temperature
Method: Conductance measurements were carried out at room temperature by use of a Thermo conductivity meter, model Orion 150+. Routinely, the titrations were performed by adding a controlled amount of 10% of stock surfactant solution under magnetic stirring into the 0.5% BSA (Bovine Serum Albumin) in 0.02M acetate buffer at pH˜5.2. Values of CMC (critical micellization concentration), CAC (critical aggregation concentration) and protein saturation point (PSP) were defined by the changing of the slope of the conductivity vs. surfactant concentration plots. The number of surfactants binding to each protein can be calculated by: {[PSP]−[CAC]}/{[protein]/Mwprotein}, where [protein] is the protein concentration.
In order to show the effect of benefit agent having different polarity on binding to protein molecule (a reflection of the harshness of surfactant; more surfactant binding to protein equal harsher and more damage expected), applicants tested surfactant binding of (1) surfactant alone and (2) of surfactant in combination with various oils/cosolvents (at 1:1 surfactant to oil ratio) to see level of (how many) surfactants binding per protein molecule (e.g., BSA) at saturation. The tests were done using conductivity test described in protocol and results are set forth below in Table 1.
Applicants conducted same test as in Examples 1 to 10, but used SLES/CAPB surfactant system instead of SDS.

BSA protein = BSA protein (Bos taurus, UniProt P02769); test: Micro-DSC for protein denaturation; parameters: species or system Bovine; conditions: denaturation enthalpy approaching zero, FIG. 5
Method: 1.2% of BSA acetate buffer solution was prepared (pH 5.2, IS 0.02). […] Then the BSA acetate solution was titrated with either oil, or surfactant, or oil/surfactant at 1:1 ratio. After each titration, a DSC measurement was performed.

Chain of BSA (Bovine Serum Albumin) (P02769 25-607): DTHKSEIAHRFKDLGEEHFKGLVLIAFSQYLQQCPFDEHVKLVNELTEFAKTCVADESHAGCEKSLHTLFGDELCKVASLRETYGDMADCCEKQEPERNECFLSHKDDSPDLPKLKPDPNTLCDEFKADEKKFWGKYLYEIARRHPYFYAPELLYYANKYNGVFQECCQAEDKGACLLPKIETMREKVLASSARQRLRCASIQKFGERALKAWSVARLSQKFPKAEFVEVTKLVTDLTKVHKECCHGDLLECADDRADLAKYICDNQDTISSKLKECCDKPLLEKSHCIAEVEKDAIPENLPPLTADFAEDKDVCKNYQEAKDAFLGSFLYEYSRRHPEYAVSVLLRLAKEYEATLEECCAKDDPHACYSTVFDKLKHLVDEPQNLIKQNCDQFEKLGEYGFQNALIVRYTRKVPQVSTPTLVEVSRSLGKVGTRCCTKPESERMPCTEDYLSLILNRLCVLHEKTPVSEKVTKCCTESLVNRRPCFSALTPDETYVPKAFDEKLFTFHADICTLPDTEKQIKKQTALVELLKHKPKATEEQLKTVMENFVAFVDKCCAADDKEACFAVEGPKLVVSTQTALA
Chain of BSA protein (P02769 25-607): as above

CCCCCCCCCCCCOS(=O)(=O)[O-].[Na+] [10% SDS (surfactant alone), Sodium dodecyl sulfate]
Saturated binding: No. of surfactant per BSA at saturation [1]: 220 | ratio surfactant to protein at which BSA protein is fully denatured at room temperature (BSA protein): about 1.2
